Laboratory results taken from publication PMC3515450, “Mechanistic and Structural Understanding of Uncompetitive Inhibitors of Caspase-6” (PLoS ONE, 2012).

Target: T1, caspase-3 (Homo sapiens, UniProt P42574)
T1 construct: as the catalytic domain consisting of large p20 and small p10 subunits without prodomain; made in house
T1 sequence (P42574 29-175 limits assumed): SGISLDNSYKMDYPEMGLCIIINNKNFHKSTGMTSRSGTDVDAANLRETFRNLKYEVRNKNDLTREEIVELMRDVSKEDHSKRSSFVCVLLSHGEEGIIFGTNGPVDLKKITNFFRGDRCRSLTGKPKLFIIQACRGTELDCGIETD
T1 sequence (P42574 176-277 limits assumed): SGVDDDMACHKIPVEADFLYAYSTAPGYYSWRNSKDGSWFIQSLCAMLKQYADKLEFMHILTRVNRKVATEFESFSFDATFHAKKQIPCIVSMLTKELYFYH
Experiment: Caspase-3 enzymatic assay with divalent R110 substrates
Format: biochemical
Procedure: The in vitro enzymatic caspase assays utilize synthetic tetrapeptide substrates labeled with the fluorophores Rhodamine110 (R110) or 7-amino-4-methylcoumarin (AMC) at the P1 aspartic acid (Asp) residue. All assays were performed in 384-well plates in 12 µL reaction volume consisting of enzyme, substrate and indicated concentration of inhibitor or DMSO in assay buffer (50 mM HEPES [pH 7.0], 25 mM MgSO4, 0.5 mM EGTA, 5 mM Glutathione (GSH), 0.01% Triton X-100 containing 0.1% Bovine Gamma Globulin (BGG)). All inhibitors were serially diluted in 100% DMSO prior to dilution in assay buffer and transfer to assay plate. DMSO was diluted into assay buffer similarly for blank wells (no enzyme or compound) and final DMSO concentration was 1%. The concentration of caspase-6 used in enzymatic reactions typically varied between 1–10 nM depending on substrate used. Unless otherwise indicated, substrate concentration was within 3-fold of the determined Kmapparent (5 µM (Ac-VEID)2R110 [Kmapp = 8 µM]; 5 µM (Ac-DEVD)2R110 [Kmapp = 8 µM]; 25 µM (Ac-IETD)2R110 [Kmapp = 70 µM]; 25 µM (Ac-WEHD)2R110 [Kmapp = 70 µM]; 10µM Ac-VEID-AMC [Kmapp = 16µM]; 5 µM Ac-VEID-R110 [Kmapp = 8 µM]). The concentration of substrate utilized in selectivity assays for each caspase isoform was also held as close to Kmapparent as reasonably achievable (Table S1). Caspases-3 and -7 were expressed and purified at Genentech as the catalytic domain consisting of large p20 and small p10 subunits without prodomain. For all caspase enzymatic assays, the reaction plate was incubated at room temperature for 40 minutes and then read on Envision (Perkin Elmer) fluorescent plate reader at excitation/emission wavelengths of 485/535 nm (R110) or 350/450 nm (AMC).
The endpoint fluorescent emission (RFU) in each well was plotted as a function of inhibitor concentration and the 50% inhibition (IC50) values were determined using a nonlinear least squares fit of the data to a four parameter equation using Prism 5.0 software (GraphPad Software, San Diego, CA). […]

IC50 (caspase-3, (DEVD)2R110 substrate): > 100 µM | IC50 (caspase-3, (VEID)2R110 substrate): > 100 µM
SMILES: COc1ccc(-c2cc(C(=O)N[C@@H](CO)Cc3cccc(C#N)c3)co2)cc1OC [Compound 3]
